In publication PMC7603008 (Materials, 2020):
Ends that are not written are not given here.

Tests used:
hDPCs = test: MTT cytotoxicity / proliferation assay; type: cell-based, human; conditions: 0 to 5 days, absorbance 540 nm, three independent experiments in triplicate
Experimental: To evaluate the effects of Cpne7-DP on hDPCs proliferation, an MTT [3-(4,5-Dimethylthiazol-2-yl)-2,5-diphenyltetrazolium bromide, a tetrazole] assay (Sigma-Aldrich, Saint Louis, MO, USA) was performed. Cells were seeded on a 96-well plate at a density of 3 × 10^3 cells/well and treated with Cpne7-DP after 24 h. Cells were cultured for up to 5 days, and MTT analyses were performed on days 0, 1, 3, and 5. After washing with phosphate-buffered saline (PBS), 20 µL of MTT was added to each well and incubated for 4 h at 37 °C. After removing the MTT solution, the converted dye was dissolved in Me2SO and measured by reading the absorbance at a wavelength of 540 nm with a microplate reader (Multiskan EX; Thermo Electron Corp., Waltham, MA, USA). Three independent experiments with triplicate samples were analyzed.

MDPC-23 cells = test: Peptide translocation and localization by immunofluorescence; type: cell-based, mouse
Experimental: For peptide translocation and localization analysis, a Cy5 Fast Conjugation Kit (ab188288, Abcam, Cambridge, MA, USA) was used to tag Cpne7-DP according to the manufacturer’s instructions. MDPC-23 cells were treated with Cy5-labeled Cpne7-DP (10 µg/mL) and fixed 3 h later. Before fixing with 4% paraformaldehyde in PBS, cells in Laboratory-Tek chamber slides (Nunc, Rochester, NY, USA) were washed with PBS. Cells were then visualized using fluorescence microscopy (AX70, Olympus, Tokyo, Japan). DAPI (Sigma-Aldrich) was used to identify the chromosomal DNA in the nucleus (1:1000 dilution).

[1] = Dentinal tubule penetration by confocal laser scanning microscopy; design: species or system human; conditions: Rhodamin B-labeled Cpne7-DP 20 µg microbrushed for 1 min onto acid-etched dentin of extracted tooth, PBS wash
Experimental: Human third molars were collected at the Seoul National University Dental Hospital (Seoul, Korea), and the experimental protocol was approved by the Institutional Review Board (IRB No: S-D20140007). Teeth were decoronated to 2–3 mm using a safe diamond disc (Isomet, Buehler Ltd., Düsseldorf, Germany) to eliminate the coronal enamel layer and expose the dentin surface. Teeth were then treated with 5 mL of 32% phosphoric acid solution for 5 min to completely open the dentinal tubules. To remove the residual smear layer, specimens were ultrasonicated in deionized water twice for 5 min each and then rinsed with PBS three times.
Cpne7-DP was tagged with Rhodamin B dye using the Rhodamine Fast Conjugation kit (ab188286, Abcam, Cambridge, MA, USA) according to the manufacturer’s instructions. Rhodamin B-labeled Cpne7-DP (20 µg) was applied to the dentin surfaces of specimens with the help of disposable microbrushes for 1 min, and then specimens were washed with PBS three times. Subsequently, the specimens were longitudinally sectioned at a thickness of 0.5 mm using a safe diamond disc. The sections were mounted onto glass slides and scanned under a confocal laser scanning microscope (LSM 700; Carl Zeiss, Jena, Germany).

Sequence: KYKQKRRSYK [Cpne7-DP]
- Cytotoxicity versus control (MTT) (hDPCs): no significant difference in cytotoxicity
- Internalization with chlorpromazine (clathrin-mediated endocytosis inhibitor) (MDPC-23 cells; MDPC-23 cells pre-treated with CPZ 10 and 20 μM for 1 h, immunofluorescence): diffusely localized to the cytoplasm
- Internalization with ethylisopropyl amiloride (macropinocytosis inhibitor) (MDPC-23 cells; MDPC-23 cells pre-treated with EIPA for 1 h, immunofluorescence): no effect on the cytoplasmic localization
- Internalization with methyl-β-cyclodextrin (caveolin-mediated endocytosis inhibitor) (MDPC-23 cells; MDPC-23 cells pre-treated with MβCD for 1 h, immunofluorescence): diffusely localized to the cytoplasm
- Internalization in nucleolin siRNA-transfected cells (MDPC-23 cells; MDPC-23 cells pre-treated with nucleolin siRNA for 1 h, immunofluorescence): diffusely located in the cytoplasm
- Intracellular distribution (MDPC-23 cells; MDPC-23 cells, Cy5-labeled Cpne7-DP 10 µg/mL, fixed 3 h later, fluorescence microscopy): localized to the cytoplasm
- Ability to permeate dentinal tubules [1]: flow through the entire length of the dentinal tubules into the pulp
